Measurements published in patent publication US9499553B2 (CHUGAI SEIYAKU KABUSHIKI KAISHA, priority 2013, dated 2016).
Structures can show the parent of a compound that is named as a salt.

Molecular target: T1, human NaPi-IIb (Homo sapiens, UniProt O95436)
T1 construct: expressed in transfected cells
T1 sequence (O95436 1-690): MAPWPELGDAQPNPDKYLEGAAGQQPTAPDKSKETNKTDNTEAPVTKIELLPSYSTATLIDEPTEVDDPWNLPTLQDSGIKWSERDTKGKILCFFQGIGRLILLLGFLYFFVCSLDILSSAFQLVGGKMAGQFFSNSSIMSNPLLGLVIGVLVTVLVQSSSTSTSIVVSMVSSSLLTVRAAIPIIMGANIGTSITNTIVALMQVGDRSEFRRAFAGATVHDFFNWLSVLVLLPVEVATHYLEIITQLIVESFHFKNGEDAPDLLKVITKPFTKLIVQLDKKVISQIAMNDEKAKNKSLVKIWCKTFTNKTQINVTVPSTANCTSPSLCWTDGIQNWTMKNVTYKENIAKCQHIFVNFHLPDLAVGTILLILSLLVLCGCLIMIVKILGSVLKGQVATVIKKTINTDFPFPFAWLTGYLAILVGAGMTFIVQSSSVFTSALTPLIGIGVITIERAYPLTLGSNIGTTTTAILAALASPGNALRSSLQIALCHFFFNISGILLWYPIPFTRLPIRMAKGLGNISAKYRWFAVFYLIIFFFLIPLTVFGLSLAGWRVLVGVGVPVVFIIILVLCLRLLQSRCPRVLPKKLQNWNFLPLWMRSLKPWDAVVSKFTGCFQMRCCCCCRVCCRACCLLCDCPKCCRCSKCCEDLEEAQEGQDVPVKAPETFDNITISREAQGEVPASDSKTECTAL
Experiment: Inhibitory effect on 33PO4 uptake into human NaPi-IIb-expressing CHO cells
Assay type: cell-based
Details: read-out: IC50
Method: Test Example 2: Inhibitory Effect on PO4 Uptake into Human NaPi-IIb-Expressing Cell CHO cells were transfected with human NaPi-IIb expression plasmids, and a stably human NaPi-IIb-expressing cell line was obtained using G418. The human NaPi-IIb-expressing cells were inoculated to a 96-well plate and incubated overnight in a CO2 incubator. […] After a given time, a 1/20 volume of buffer A containing ^33PO4 was added thereto and reacted at room temperature. After washing with ice-cold buffer A, a liquid scintillator was added to each reaction mixture, and the amount of ^33PO4 uptake was measured using TopCount.

Compound | IC50
C[C@]12CCCN1N(CCCC(F)(F)F)C(=O)C(C(=O)Nc1ccc(C(F)(F)F)cc1-c1cc(C(F)(F)F)ncn1)=C2O [Example 234] | 9.4 µM
C[C@]12CCCN1N(Cc1cccc(F)c1F)C(=O)C(C(=O)Nc1ccc(C(F)(F)F)cc1-c1ncnc(Cl)c1Cl)=C2O [Example 70] | 8.4 µM
CC(C)[C@@H]1C(O)=C(C(=O)Nc2ccc(Cl)cc2-c2ccc(C(F)(F)F)nc2)C(=O)N(Cc2cccc(F)c2F)N1C [Example 251] | 7.6 µM
COc1cccc(-c2cc(C(F)(F)F)ccc2NC(=O)C2=C(O)[C@@]3(C)CCCN3N(Cc3cccc(F)c3F)C2=O)n1 [Example 93] | 17.4 µM
CN1[C@@H](C(C)(C)C)C(O)=C(C(=O)Nc2ccc(Cl)cc2-c2cc(C#N)ncn2)C(=O)N1Cc1ccc(OCCN2CCOCC2)c(F)c1F [Example 272] | 19.5 µM
CN1N(Cc2ccc(OCCN3CCOCC3)c(F)c2F)C(=O)C(C(=O)Nc2ccc(C(F)(F)F)cc2-c2ccc(C(F)(F)F)nc2)=C(O)C12CCC2 [Example 282] | 11.1 µM
COc1cccc(-c2cc(C(F)(F)F)ccc2NC(=O)C2=C(O)[C@@]3(C)CCCN3N(Cc3ccc(OCc4ccncc4)c(F)c3F)C2=O)c1OC [Example 151, (4aR)-1-[[2,3-Difluoro-4-(pyridin-4-ylmethoxy)phenyl]methyl]-N-[2-(2,3-dimethoxyphenyl)-4-(trifluoromethyl)phenyl]-4-hydroxy-4a-methyl-2-oxo-6,7-dihydro-5H-pyrrolo[1,2-b]pyridazine-3-carboxamide] | 8.4 µM
CCOC(=O)CCCCCCN1C(=O)C(C(=O)Nc2ccc(C(F)(F)F)cc2-c2ccc(C(F)(F)F)nc2)=C(O)[C@@]2(C)CCCN12 [Example 235, Ethyl 7-[(4aR)-4-hydroxy-4a-methyl-2-oxo-3-[[4-(trifluoromethyl)-2-[6-(trifluoromethyl)pyridin-3-yl]phenyl]carbamoyl]-6,7-dihydro-5H-pyrrolo[1,2-b]pyridazin-1-yl]heptanoate] | 4.8 µM
COc1cccc(-c2cc(C(F)(F)F)ccc2NC(=O)C2=C(O)[C@@]3(C)CCCN3N(Cc3ccc(CCCOCCOCCOCCO)c(F)c3F)C2=O)c1OC [Example 142] | 17.6 µM
C[C@]12CCCN1N(Cc1ccccc1Cl)C(=O)C(C(=O)Nc1cc(F)c(Br)c(F)c1)=C2O [Example 219] | 4.2 µM
CCCCCN1C(=O)C(C(=O)Nc2ccc(C(F)(F)F)cc2-c2ccc(C(F)(F)F)nc2)=C(O)[C@@]2(C)CCCN12 [Example 26] | 2.2 µM
CN1N(Cc2ccc(OCCN3CCOCC3)c(F)c2F)C(=O)C(C(=O)Nc2ccc(C(F)(F)F)cc2-c2cc(C(F)(F)F)ncn2)=C(O)C1(C)C [Example 313, 2-[[2,3-Difluoro-4-(2-morpholin-4-ylethoxy)phenyl]methyl]-5-hydroxy-1,6,6-trimethyl-3-oxo-N-[4-(trifluoromethyl)-2-[6-(trifluoromethyl)pyrimidin-4-yl]phenyl]pyridazine-4-carboxamide] | 18.3 µM
C[C@]12CCCN1N(Cc1ccccc1C#N)C(=O)C(C(=O)Nc1ccc(C(F)(F)F)cc1-c1cc(C(F)(F)F)ncn1)=C2O [Example 178] | 8.2 µM
C[C@]12CCCN1N(Cc1ccc(F)cc1F)C(=O)C(C(=O)Nc1cc(F)c(Br)c(F)c1)=C2O [Example 192] | 16.5 µM
C[C@]12CCCN1N(Cc1cc(F)cc(F)c1)C(=O)C(C(=O)Nc1ccc(C(F)(F)F)cc1-c1ccc(C(F)(F)F)nc1)=C2O [Example 171] | 2.2 µM
CN1N(Cc2ccc(OCCCC(=O)O)c(F)c2F)C(=O)C(C(=O)Nc2ccc(C(F)(F)F)cc2-c2cc(C(F)(F)F)ncn2)=C(O)C12CCCC2 [Example 332, 4-[2,3-Difluoro-4-[[10-hydroxy-6-methyl-8-oxo-9-[[4-(trifluoromethyl)-2-[6-(trifluoromethyl)pyrimidin-4-yl]phenyl]carbamoyl]-6,7-diazaspiro[4.5]dec-9-en-7-yl]methyl]phenoxy]butanoate] | 23.9 µM
CC(C)(C)[C@H]1C(O)=C(C(=O)Nc2cc(F)c(Br)c(F)c2)C(=O)N(Cc2cccc(F)c2F)N1CC(F)(F)F [Example 248] | 17.6 µM
CCC1(CC)C(O)=C(C(=O)Nc2ccc(C(F)(F)F)cc2-c2ccc(C(F)(F)F)nc2)C(=O)N(Cc2ccc(OCCN3CCOCC3)c(F)c2F)N1C [Example 293] | 10.7 µM
C[C@]12CCCN1N(Cc1cccc(F)c1F)C(=O)C(C(=O)Nc1ccc(C(F)(F)F)cc1-c1cnc(Br)cn1)=C2O [Example 73] | 2.3 µM
C[C@]12CCCN1N(Cc1ccc(C#CCN3CCOCC3=O)c(F)c1F)C(=O)C(C(=O)Nc1ccc(Br)c(F)c1)=C2O [Example 133] | 13.1 µM
C[C@]12CCCN1N(Cc1c(F)cc(C#CCCOC[C@H](O)CO)cc1F)C(=O)C(C(=O)Nc1ccc(C(F)(F)F)cc1-c1ccc(C(F)(F)F)nc1)=C2O [Example 145] | 7.1 µM
C[C@]12CCCN1N(Cc1ccc(SCCN3CCOCC3)c(F)c1F)C(=O)C(C(=O)Nc1ccc(C(F)(F)F)cc1-c1ccc(C(F)(F)F)nc1)=C2O [Example 163, (4aR)-1-[[2,3-Difluoro-4-(2-morpholin-4-ylethylsulfanyl)phenyl]methyl]-4-hydroxy-4a-methyl-2-oxo-N-[4-(trifluoromethyl)-2-[6-(trifluoromethyl)pyridin-3-yl]phenyl]-6,7-dihydro-5H-pyrrolo[1,2-b]pyridazine-3-carboxamide hydrochloride] | 6.8 µM
C[C@]12CCCN1N(Cc1ccccc1Br)C(=O)C(C(=O)Nc1cc(F)c(Br)c(F)c1)=C2O [Example 216] | 8 µM
CN1N(Cc2ccc(OCCN3CCOCC3)c(F)c2F)C(=O)C(C(=O)Nc2ccc(Cl)cc2-c2cc(C(F)(F)F)ncn2)=C(O)C12CCCC2 [Example 286] | 15.8 µM
CN1[C@@H](C(C)(C)C)C(O)=C(C(=O)Nc2ccc(Cl)cc2-c2ccc(C(F)(F)F)nc2)C(=O)N1Cc1cccc(F)c1F [Example 239] | 8.5 µM
CN1N(Cc2cccc(F)c2F)C(=O)C(C(=O)Nc2ccc(Cl)cc2-c2cc(C(F)(F)F)ncn2)=C(O)C12CCC2 [Example 255] | 9.8 µM

Same assay, conditions: read-out: IC50 against 33PO4 uptake into human NaPi-IIb-expressing cells

Compound | IC50
CN(CCOc1ccc(CN2C(=O)C(C(=O)Nc3ccc(C(F)(F)F)cc3-c3cc(C(F)(F)F)ncn3)=C(O)C3(CCC3)N2C)c(F)c1F)C1COC1 [Example 402, 6-(2,3-Difluoro-4-(2-(methyl(oxetan-3-yl)amino)ethoxy)benzyl)-9-hydroxy-5-methyl-7-oxo-N-(4-(trifluoromethyl)-2-(6-(trifluoromethyl)pyrimidin-4-yl)phenyl)-5,6-diazaspiro[3.5]non-8-ene-8-carboxamide] | 12.8 µM
CN1N(Cc2ccc(OCCn3cncn3)c(F)c2F)C(=O)C(C(=O)Nc2ccc(C(F)(F)F)cc2-c2cc(C(F)(F)F)ncn2)=C(O)C12CCC2 [Example 352] | 16.7 µM
CN1N(Cc2ccc(NCCCN3CCOCC3)c(F)c2F)C(=O)C(C(=O)Nc2ccc(C(F)(F)F)cc2-c2cc(C(F)(F)F)ncn2)=C(O)C12CCCC2 [Example 446] | 11.1 µM
CN1N(Cc2ccc(OCCN3CCN(CCOCCO)CC3)c(F)c2F)C(=O)C(C(=O)Nc2ccc(C(F)(F)F)cc2-c2cc(C(F)(F)F)ncn2)=C(O)C12CCC2 [Example 361] | 20.2 µM
CN(CCOCCOc1ccc(CN2C(=O)C(C(=O)Nc3ccc(C(F)(F)F)cc3-c3cc(C(F)(F)F)ncn3)=C(O)C3(CCCC3)N2C)c(F)c1F)C[C@H](O)[C@@H](O)[C@H](O)[C@H](O)CO [Example 420, 7-[[2,3-Difluoro-4-[2-[2-[methyl-[(2S,3R,4R,5R)-2,3,4,5,6-pentahydroxyhexyl]amino]ethoxy]ethoxy]phenyl]methyl]-10-hydroxy-6-methyl-8-oxo-N-[4-(trifluoromethyl)-2-[6-(trifluoromethyl)pyrimidin-4-yl]phenyl]-6,7-diazaspiro[4.5]dec-9-ene-9-carboxamide] | 18.6 µM
COCCCN(C)C(=O)c1cc(CN2C(=O)C(C(=O)Nc3ccc(C(F)(F)F)cc3-c3cc(C(F)(F)F)ncn3)=C(O)C3(CCCC3)N2C)c(F)c(F)c1OCCN(C)CCOC [Example 438] | 21.9 µM
CN1N(Cc2ccc(OCCCCCOC[C@H](O)CO)c(F)c2F)C(=O)C(C(=O)Nc2ccc(C(F)(F)F)cc2-c2cc(C(F)(F)F)ncn2)=C(O)C12CCC2 [Example 391] | 7 µM
COCC(C)(C)N(C)CCOc1ccc(CN2C(=O)C(C(=O)Nc3ccc(C(F)(F)F)cc3-c3cc(C(F)(F)F)ncn3)=C(O)C3(CCCC3)N2C)c(F)c1F [Example 372] | 16.3 µM
COCCOCCOc1ccc(CN2C(=O)C(C(=O)Nc3ccc(C(F)(F)F)cc3-c3cc(C(F)(F)F)ncn3)=C(O)C3(CCC3)N2C)c(F)c1F [Example 401, 6-[[2,3-Difluoro-4-[2-(2-methoxyethoxy)ethoxy]phenyl]methyl]-9-hydroxy-5-methyl-7-oxo-N-[4-(trifluoromethyl)-2-[6-(trifluoromethyl)pyrimidin-4-yl]phenyl]-5,6-diazaspiro[3.5]non-8-ene-8-carboxamide] | 14.5 µM
